Test results taken from ChEMBL document CHEMBL1201862, “PubChem BioAssay data set” (2004).
The source made the active and inactive calls.

Experiments:
[1] = molecular target: Tyrosyl-DNA phosphodiesterase 2 (Homo sapiens, UniProt O95551); assay: human TDP2 enzyme inhibitors, dose response, biochemical, epi absorbance, IC50 (AID 743297)
[2] = molecular target: T1, Small ubiquitin-related modifier 1 (Homo sapiens, UniProt P63165); assay: inhibitors of SUMO1 partner interactions, dose response, biochemical, FRET (AID 624383); type: functional; conditions: read-out: IC50_Mean
[3] = molecular target: T1, Small ubiquitin-related modifier 1; assay: inhibitors of SUMO1 peptide binding, dose response, biochemical, fluorescence polarization, uHTS hits (AID 624382); type: functional; conditions: read-out: IC50_Mean
[4] = molecular target: Peroxisome proliferator-activated receptor gamma/Nuclear receptor corepressor 2 (Homo sapiens, UniProt P37231+Q9Y618); type: functional
cells [5] = assay: cells
[6] = molecular target: Photoreceptor-specific nuclear receptor (Homo sapiens, UniProt Q9Y5X4); type: functional;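 also: potency for compounds that break the NR2E3 corepressor complex and count as activators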
Major prion protein = Major prion protein (Homo sapiens, UniProt P04156); type: functional, cell-based
CAAX prenyl protease 2 [7] = molecular target: T2, CAAX prenyl protease 2 (Saccharomyces cerevisiae S288c, UniProt Q03530); type: biochemical
T2 sequence (Q03530 whole entry): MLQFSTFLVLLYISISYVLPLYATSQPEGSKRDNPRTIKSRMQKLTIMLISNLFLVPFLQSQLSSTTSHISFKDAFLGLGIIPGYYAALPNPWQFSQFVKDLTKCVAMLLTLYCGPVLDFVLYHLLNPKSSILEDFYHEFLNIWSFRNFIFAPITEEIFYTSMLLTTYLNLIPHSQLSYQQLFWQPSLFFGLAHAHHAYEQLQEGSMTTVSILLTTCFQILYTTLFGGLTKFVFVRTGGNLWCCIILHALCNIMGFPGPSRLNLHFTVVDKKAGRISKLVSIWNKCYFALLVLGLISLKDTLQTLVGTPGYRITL

CAAX prenyl protease 2 [8] = molecular target: CAAX prenyl protease 2 (Homo sapiens, UniProt Q9Y256); assay: human Rce1 protease inhibitors, dose response, biochemical, yeast membranes, quenched-peptide fluorescence, cherry-pick (AID 588849)
[9] = molecular target: Dual specificity tyrosine-phosphorylation-regulated kinase 1A (Rattus norvegicus, UniProt Q63470); type: biochemical, Homo sapiens
[10] = ADAM10 protease inhibitors, dose response, selectivity assay for ADAM17 exosite inhibitor project, biochemical, FRET peptide substrate, recombinant human ADAM10 (AID 743259);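 also: ADAM10 enzyme cleaving a FRET peptide substrate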
[11] = molecular target: Disintegrin and metalloproteinase domain-containing protein 17 (Homo sapiens, UniProt P78536); assay: exosite inhibitors of ADAM17, dose response, biochemical (AID 743260)
[12] = molecular target: Luciferin 4-monooxygenase (Photinus pyralis, UniProt P08659); assay: firefly luciferase enzyme inhibitors, dose response, biochemical, luminescence (AID 1891)
[13] = Luminescence Cell-Based Dose Confirmation HTS to Identify Inhibitors of Platelet Dense Granule Release. [Related pubchem assays: 1663 (Primary HTS), 1678 (Summary of Project)]; type: functional
[14] = molecular target: Oxysterols receptor LXR-beta (Homo sapiens, UniProt P55055); type: functional, cell-based;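 also: agonist activity at LXR measured by a cell-based luminescence readout across a dose range, run as a counterscreen for daf-12 agonists; HEK293 cells with Gal4-LXR fusion and GAL4-driven luciferase reporter; potency for activation of Gal4-LXR reporter so compounds are agonists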
[15] = Late stage assay provider results from the probe development effort to identify selective inhibitors of heat shock protein 90 (HSP90): Absorbance-based cell proliferation assay in MCF7 cells.; type: functional
[16] = molecular target: Heat shock protein HSP 90-alpha (Homo sapiens, UniProt P07900); assay: Luminescence-based dose response biochemical high throughput screening assay for inhibitors of the Heat Shock Protein 90 (HSP90). [Related pubchem assays: 1831 (Summary AID.), 1846 (Confirmation screen.), 1789 (Primary screen.)]
[17] = THP-1 cell cytotoxicity, dose response, cytotoxicity control for Vif-APOBEC3G degradation inhibitor project, THP-1 cells (AID 1117359); type: functional; conditions: Human immunodeficiency virus 1, THP-1
[18] = Late stage assay provider results from the probe development effort to identify selective inhibitors of heat shock protein 90 (HSP90): Absorbance-based cell proliferation assay in SKBR3 cells.; type: functional; conditions: SK-BR-3
[19] = molecular target: Voltage-gated inwardly rectifying potassium channel KCNH2 (Homo sapiens, UniProt Q12809); assay: hERG channel inhibition in selectivity testing, SAR follow-up, selectivity assay for TASK1 inhibitor project, FluxOR thallium flux, concentration-response, CHO cells (AID 652194); type: functional, cell-based
[20] = molecular target: Potassium channel subfamily K member 3 (Homo sapiens, UniProt O14649); assay: TASK1 (KCNK3) potassium channel inhibitors, SAR follow-up, CHO cells, FluxOR thallium flux (AID 652212); type: functional
[21] = molecular target: Potassium channel subfamily K member 9 (Homo sapiens, UniProt Q9NPC2); assay: TASK3 (KCNK9) channel inhibitors, thallium flux, SAR follow-up, selectivity assay for TASK1 inhibitor project, cell-based, FluxOR thallium flux, concentration-response (AID 652211); type: functional;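 also: potency is for inhibitors of the channel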
cells [22] = conditions: HEK293
Fibrinogen beta chain [23] = molecular target: T3, Fibrinogen beta chain (Homo sapiens, UniProt P02675); assay: Fluorescence polarization-based biochemical high throughput dose response assay to identify inhibitors that disrupt the binding of a cyclic peptide (Tn6) to the fibrin proteolytic product D-Dimer and fragment E complex [DD(E )].
Fibrinogen beta chain [24] = molecular target: T3, Fibrinogen beta chain; assay: Fluorescence polarization-based biochemical high throughput dose response assay to identify inhibitors that disrupt the binding of a cyclic peptide (Tn7) to the fibrin proteolytic product D-Dimer and fragment E complex [DD(E )].
Paired box protein Pax-8 = Paired box protein Pax-8 (Homo sapiens, UniProt Q06710); assay: inhibitors of PAX8-driven TPO luciferase reporter, dose response, RMG-I cells, cherry-pick (AID 687027); type: functional, cell-based;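 also: luciferase reporter driven by Pax8 target thyroperoxidase promoter measured by SteadyGlo luminescence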
[25] = NIH:OVCAR-3 ovarian cancer cell cytotoxicity, dose response, PAX8 inhibitor project, plate reader, dry powder samples (AID 743044); type: functional, cell-based
[26] = A549 cell cytotoxicity, dose response, cytotoxicity control, plate reader, cherry-pick, antagonist series (AID 743412); type: functional, cell-based
[27] = HEK293 cell cytotoxicity, dose response, cytotoxicity control, plate reader, cherry-picked samples (AID 743446); type: functional, cell-based
[28] = LGR2 antagonists, dose response, cell-based, HEK293, CRE-luciferase reporter, cherry pick (AID 743342); type: functional
[29] = MC4R antagonists, dose response, counter-screen for LGR2 antagonist project, cell-based, plate reader, cherry pick (AID 743444); type: functional;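 also: transfected HEK 293 cells stimulated with alpha-MSH peptide; potency of inhibitors of the alpha-MSH evoked signal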
Fatty acid synthase = Fatty acid synthase (Homo sapiens, UniProt P49327); assay: FAS thioesterase domain inhibitors, SAR follow-up, biochemical, endpoint fluorescence intensity, powder samples (AID 652164); type: functional

## N#CC(C#N)=C1NC(N)=C(C#N)C(c2ccccc2)=C1C#N
[1]
  IC50: > 128 µM (inactive)
[2]
  IC50: 100 µM (inactive)
[3]
  IC50: > 66.6 µM (inactive)
[4]
  IC50: 3.22 µM (active)
Cells [5]
  IC50: > 138 µM (inactive)
[6]
  IC50: 8.41 µM (active)
Major prion protein
  IC50: 1.92 µM (active)
CAAX prenyl protease 2 [7]
  AC50: > 100 µM (inactive)
CAAX prenyl protease 2 [8]
  AC50: 8.31 µM (active)
[9]
  AC50: 4.56 µM (active)

## Cc1ccccc1-c1noc(-c2ccc(O)cc2)n1
[10]
  IC50: 48.8 µM (inactive)
[11]
  IC50: > 69.5 µM (inactive)
[12]
  EC50: 0.122 µM (active)
[13]
  EC50: 0.623 µM (active)

## Cc1ccc(-c2csc(NC(=O)/C=C/c3ccco3)c2C(=O)O)cc1
[14]
  EC50: > 67.6 µM (inactive)

## CCOc1ccc(-c2nc(CN3CCCCC3CCn3cccn3)c(C)o2)cc1 (configuration not stated)
[15]
  IC50: 22.2 µM (inactive)
[16]
  IC50: 9.63 µM (active)
[17]
  CC50: > 40 µM (active)
[18]
  IC50: 12.3 µM (inactive)

## COc1ccc(CC(=O)NCc2ccccc2-c2ccccc2C(=O)NCc2ccc(F)cc2F)cc1
[19]
  IC50: 36.7 µM (active)
[20]
  IC50: 0.115 µM (active)
[21]
  IC50: 3.2 µM (active)

## CNC(=O)c1ccc(NC(=O)c2cccc(C(F)(F)F)c2)cc1
Cells [22]
  AC50: 49.8 µM (active)

## C#CCNc1ccc(C(=O)OCC)cc1
Fibrinogen beta chain [23]
  IC50: > 83.1 µM (inactive)
Fibrinogen beta chain [24]
  IC50: > 27.7 µM (inactive)

## Cc1cccc(S(=O)(=O)N2CC[C@@H]3[C@H](CO)N(C)c4ccc(-c5ccc(C#N)cc5)cc4[C@@H]32)c1
Paired box protein Pax-8
  AC50: 10.1 µM (active)
[25]
  AC50: 67.7 µM (active)

## COc1ccc(S(=O)(=O)N(C)C[C@@H]2OCCCC[C@H](C)Oc3ccc(NS(=O)(=O)c4ccc(F)cc4)cc3C(=O)N([C@@H](C)CO)C[C@@H]2C)cc1
[26]
  AC50: 26 µM (active)
[27]
  AC50: > 52 µM (inactive)
[28]
  AC50: 58.8 µM (active)
[29]
  AC50: 42.7 µM (active)

## CCN(CC)S(=O)(=O)c1ccc(-c2csc(NC(=O)C3CCC3)n2)cc1
Fatty acid synthase
  IC50: 0.985 µM (active)
